The source of these data is PMC3764026, “Adaptive Evolution of Escherichia coli to an α-Peptide/β-Peptoid Peptidomimetic Induces Stable Resistance” (PLoS ONE, 2013).

Assay [1] relates to isolates from peptidomimetic 1-exposed E. coli ATCC 25922 lineages. To be noted: for change in MIC following acquisition of peptidomimetic resistance: isolate 2–7 vs wild type, biological duplicates; for cross-resistance: MIC as compared to the wild type: all twenty isolates from lineages no. 2 and 5, KR-12, IsCTp, melittin, PEP-1-K in 1% peptone instead of MHB. As for the experimental part:
(§1) Continuous selection of resistance was performed for peptidomimetic 1 (Figure 1) and for the clinically relevant natural antimicrobial peptide, polymyxin B. A bacterial suspension of a single colony of E. coli ATCC 25922 was re-inoculated (10 µl) five times in unsupplemented MHB (990 µl). It was then re-inoculated in MHB supplemented with peptidomimetic 1 (ten lineages) or polymyxin B (ten lineages), and after ten re-inoculations at constant peptidomimetic or polymyxin B concentration, the concentrations were doubled. […] Four lineages grown in MHB with MilliQ water were included as control. Re-inoculations were performed twice a day, but were reduced to once a day when growth was slower as assessed by turbidity of the cultures. The total number of passages (supplemented with peptidomimetic/AMP) was 77 times equivalent to approx. 500 generations. For each increase in concentration the lineages were preserved as freezing stocks. Ten colony isolates were randomly selected from each lineage population at 32×MIC and preserved as freezing stocks.
MIC was determined by using the micro-dilution method according to guidelines of the Clinical and Laboratory Standards Institute. Peptidomimetic 1 and erythromycin 1∶2 serial dilutions were prepared from 1024 µg/mL stock solutions to give a final range of 512-0.5 µg/mL in the wells. Ampicillin 1∶2 serial dilutions were prepared from a 256 µg/mL stock solution to give a final range of 128-0.13 µg/mL in the wells. Polymyxin B and gentamicin 1∶2 serial dilutions were prepared from a 64 µg/mL stock solution to give a final range of 32-0.03 µg/mL in the wells.
The population lineages were tested for their susceptibility towards peptidomimetic 1, polymyxin B, gentamicin and ampicillin. Single-culture isolates selected from these populations were additionally tested against peptidomimetic 1, polymyxin B, erythromycin and the five reference AMPs. To estimate the level of cross-resistance to closely related peptidomimetics, MIC determinations were performed for peptidomimetics 2 and 3 (Figure 1) towards selected isolates. The bacterial suspensions were grown overnight in MHB at 37°C for determination of the population MIC, or individual isolates were grown overnight on non-selective BHI agar at 37°C. […] In all experiments, bacterial cells were suspended in 0.9% saline to give a turbidity of 0.13 at OD546 (approximately 1×10^8 CFU/mL) and diluted in MHB pH 7.4 to a final concentration of 5×10^5 CFU/mL in each well. Polypropylene plates (Nunc 442587) were used to minimize peptide binding, and the incubation time was 18–20 hours at 37°C. […] MIC was found in a minimum of two technical (population MIC) or biological (isolate MIC) replicates as the lowest concentration of the AMP or antibiotic where no visible growth was observed.

Assay [2] has as its system E. coli ATCC 25922 lineages adapted to peptidomimetic 1. The class given is cell-based, Escherichia coli. Particulars: for cross-resistance to conventional antibiotics: any of the lineages (peptidomimetic- and polymyxin B-exposed), population MIC, data not shown. On the procedure: as §1
(§2) MIC was determined by using the micro-dilution method according to guidelines of the Clinical and Laboratory Standards Institute. Peptidomimetic 1 and erythromycin 1∶2 serial dilutions were prepared from 1024 µg/mL stock solutions to give a final range of 512-0.5 µg/mL in the wells. Ampicillin 1∶2 serial dilutions were prepared from a 256 µg/mL stock solution to give a final range of 128-0.13 µg/mL in the wells. Polymyxin B and gentamicin 1∶2 serial dilutions were prepared from a 64 µg/mL stock solution to give a final range of 32-0.03 µg/mL in the wells. Also, 1∶2 serial dilutions of the AMPs KR-12, IsCTp, melittin and PEP-1-K were prepared from 64 µg/mL stock solutions to give a final range of 32-0.03 µg/mL in the wells; however this was performed in 1% peptone instead of in MHB since activity was drastically diminished in the latter (not shown).
(§3) The population lineages were tested for their susceptibility towards peptidomimetic 1, polymyxin B, gentamicin and ampicillin. Single-culture isolates selected from these populations were additionally tested against peptidomimetic 1, polymyxin B, erythromycin and the five reference AMPs. To estimate the level of cross-resistance to closely related peptidomimetics, MIC determinations were performed for peptidomimetics 2 and 3 (Figure 1) towards selected isolates. The bacterial suspensions were grown overnight in MHB at 37°C for determination of the population MIC, or individual isolates were grown overnight on non-selective BHI agar at 37°C. […] In all experiments, bacterial cells were suspended in 0.9% saline to give a turbidity of 0.13 at OD546 (approximately 1×10^8 CFU/mL) and diluted in MHB pH 7.4 to a final concentration of 5×10^5 CFU/mL in each well. Polypropylene plates (Nunc 442587) were used to minimize peptide binding, and the incubation time was 18–20 hours at 37°C. Incubation time was additionally extended up to 44 hours for the individual isolates due to a potential effect of growth rate on the outcome, but no effect was seen of this (not shown). MIC was found in a minimum of two technical (population MIC) or biological (isolate MIC) replicates as the lowest concentration of the AMP or antibiotic where no visible growth was observed.
(§4) Frozen stocks were reconditioned in unsupplemented MHB media for five transfers (∼35 generations) at 37°C. The heritability of resistance was established through MIC determination of bacterial populations as described above.

In assay [3] the test system is E. coli ATCC 25922 control lineages. The class given is cell-based, Escherichia coli. Particulars: two technical duplicates. On the procedure: as §1, §2, §3, §4
Assay [4] has as its system E. coli ATCC 25922 lineages adapted to polymyxin B. The class given is cell-based, Escherichia coli. To be noted: for MIC against polymyxin after 35 generations w/o selection / MIC against polymyxin after selection: two technical duplicates; for MIC against polymyxin after selection: MHB pH 7.4, 37°C, 18–20 h. On the procedure: as §1, §2, §3, §4
For assay [5], the system named is Escherichia coli ATCC 25922. The experiment in a line: Continuous selection experiment. The class given is cell-based. As for the experimental part:
as §1

In brackets after ≈: the same amount, converted by molar mass. Like-named read-outs stand apart in the source and are kept apart here. Positions of bridges follow the written chain, without caps; N, C: chain ends. Non-standard residues stand in square brackets, D forms with d. Residues, ends and D or L forms follow the SMILES beside them. *: point of attachment. X1 = CC[C@H](C)CCCCC(=O)*; Dab = NCC[C@H](N)C(=O)O

With `OO` [hydrogen peroxide, reference compound], the “change in MIC following acquisition of peptidomimetic resistance” value in assay [1] is given as “No changes”.

As for melittin [melitin, reference compound], in assay [1] (not shown), the “cross-resistance: MIC as compared to the wild type” value is recorded as “did not find increased MIC values”.

Regarding `CC[C@H]1OC(=O)[C@H](C)[C@@H](O[C@H]2C[C@@](C)(OC)[C@@H](O)[C@H](C)O2)[C@H](C)[C@@H](O[C@@H]2O[C@H](C)C[C@H](N(C)C)[C@H]2O)[C@](C)(O)C[C@@H](C)C(=O)[C@H](C)[C@@H](O)[C@]1(C)O` [erythromycin, reference compound], in assay [1] (the five highly resistant isolates of lineage no. 2 carrying the macrolide transporter mutation, not shown), the “change in susceptibility as compared to the wild type” value is given as “No change”.

Take lysozyme: the “change in MIC following acquisition of peptidomimetic resistance” value in assay [1] is reported as “No changes”.

Consider `CC1(C)S[C@@H]2[C@H](NC(=O)[C@H](N)c3ccccc3)C(=O)N2[C@H]1C(=O)O` [ampicillin, reference compound], for which, in assay [2], the “cross-resistance to conventional antibiotics” value is “No cross-resistance”.

With protamine [reference compound], the “cross-resistance: MIC as compared to the wild type” value in assay [1] (not shown) is on record as “did not find increased MIC values”.

`CNC(C)C1CCC(N)C(OC2C(N)CC(N)C(OC3OCC(C)(O)C(NC)C3O)C2O)O1` (centres unmarked) [gentamicin, reference compound]: the “cross-resistance to conventional antibiotics” value in assay [2] is “No cross-resistance”.

In the case of `CC[C@H](C)CCCCC(=O)N[C@@H](CCN)C(=O)N[C@H](C(=O)N[C@@H](CCN)C(=O)N[C@H]1CCNC(=O)[C@H]([C@@H](C)O)NC(=O)[C@H](CCN)NC(=O)[C@H](CCN)NC(=O)[C@H](CC(C)C)NC(=O)[C@@H](Cc2ccccc2)NC(=O)[C@H](CCN)NC1=O)[C@@H](C)O` [polymyxin B, Polymyxin B] (X1-[Dab]T[Dab][Dab][Dab][dF]L[Dab][Dab]T; lactam 4-C (inferred); N-terminus assumed), the “MIC against polymyxin after 35 generations w/o selection” value is 0.5 µg/mL (≈ 0.415 µM) in assay [3] (Control 1 lineage (MilliQ water)); 0.5 to 1 µg/mL in assay [3] (Control 2 lineage (MilliQ water)); 32 µg/mL (≈ 26.6 µM) in assay [4] (polymyxin B-exposed lineage 2, five passages in unsupplemented MHB); 32 µg/mL (≈ 26.6 µM) in assay [4] (polymyxin B-exposed lineage 3, five passages in unsupplemented MHB); 32 µg/mL (≈ 26.6 µM) in assay [4] (polymyxin B-exposed lineage 4, five passages in unsupplemented MHB); 32 µg/mL (≈ 26.6 µM) in assay [4] (polymyxin B-exposed lineage 5, five passages in unsupplemented MHB). Further, the “MIC against polymyxin after 35 generations w/o selection” value in assay [4] (polymyxin B-exposed lineage 6, five passages in unsupplemented MHB) is recorded as 32 µg/mL (≈ 26.6 µM); in assay [4] (polymyxin B-exposed lineage 8, five passages in unsupplemented MHB), 32 µg/mL (≈ 26.6 µM); in assay [4] (polymyxin B-exposed lineage 9, five passages in unsupplemented MHB) it was 32 µg/mL (≈ 26.6 µM); in assay [4] (polymyxin B-exposed lineage 10, five passages in unsupplemented MHB) it was 32 µg/mL (≈ 26.6 µM). For the same compound, the “MIC against polymyxin after selection” value was determined as 8 µg/mL (≈ 6.65 µM) in assay [3] (Control 1 lineage (MilliQ water, no polymyxin)); 1 µg/mL (≈ 0.831 µM) in assay [3] (Control 2 lineage (MilliQ water, no polymyxin)); 32 µg/mL (≈ 26.6 µM) in assay [4] (polymyxin B-exposed lineage 2, population outgrown at 32×wt MIC); 32 µg/mL (≈ 26.6 µM) in assay [4] (polymyxin B-exposed lineage 3, population outgrown at 32×wt MIC); 32 µg/mL (≈ 26.6 µM) in assay [4] (polymyxin B-exposed lineage 4, population outgrown at 32×wt MIC); 32 µg/mL (≈ 26.6 µM) in assay [4] (polymyxin B-exposed lineage 5, population outgrown at 32×wt MIC). For the same compound, the “MIC against polymyxin after selection” value turned out to be 32 µg/mL (≈ 26.6 µM) in assay [4] (polymyxin B-exposed lineage 6, population outgrown at 32×wt MIC); 32 µg/mL (≈ 26.6 µM) in assay [4] (polymyxin B-exposed lineage 8, population outgrown at 32×wt MIC); 32 µg/mL (≈ 26.6 µM) in assay [4] (polymyxin B-exposed lineage 9, population outgrown at 32×wt MIC); 32 µg/mL (≈ 26.6 µM) in assay [4] (polymyxin B-exposed lineage 10, population outgrown at 32×wt MIC). In addition, the “cross-resistance after removal of the selection pressure” value in assay [2] (peptidomimetic-exposed lineages, ~35 generations unsupplemented, became similar to controls, not shown) is on record as “lost”. Also, in assay [4] (the eight polymyxin B-exposed lineages after selection), the “increase in MIC as compared to the wild-type strain” value is reported as 32 fold. The “cross-resistance: MIC as compared to the wild type” value in assay [1] (not shown) is listed as “did not find increased MIC values”. In addition, the “lineages that eventually grew at 32×wt MIC” value in assay [5] (ten lineages per agent, from 1/16×wt MIC, doubled stepwise, 77 inoculations, approx. 500 generations, 32×wt MIC = 256 µg/mL peptidomimetic 1, 32 µg/mL polymyxin B) is “eight out of ten”. In addition, in assay [5] (two controls per agent, 32 µg/mL peptidomimetic 1 or 4 µg/mL polymyxin B), the “growth of unexposed control lineages at 4×wt MIC” value is recorded as “one of the two controls”.
